Experimental data reported in patent publication US6517812B1, “Inhibition of psychostimulant-induced and nicotine-induced craving” (The General Hospital Corporation, priority 1997, dated 2003).
Where “and” joins values, the source holds several entries; their conditions need not be identical. Equal entries are not always repeated.

Test system: cocaine-dependent volunteers
Test: Behavioral ratings of rush, high, low and craving (integer scale 0 to 3) after cocaine infusion
Format: in vivo
Conditions: human
From the text: During FAIR and BOLD infusion scans, behavioral measures of rush, high, low, and craving were obtained in a continuous sequence each minute. Thus, over each 15 second epoch, one rating scale would be projected for the subject's response. Given four scales, it took one minute to cycle through the complete set of scales. Timing of scan initiation, infusion onset and offset, and scan completion were linked with ongoing behavioral reports to allow subsequent correlational analysis between behavioral ratings and fMRI acquisitions. Behavioral responses were acquired with a four-button button-press which had been adapted to the magnet environment by construction with non-magnetic components and filtering of its output at the Faraday shield.
To obtain meaningful behavioral ratings during scanning, subjects were trained beforehand. The day before scanning, subjects were interviewed in depth by one of two board-certified psychiatrists to fully describe their experience of cocaine intake. These descriptions were then categorized by the psychiatrist and subject into four components: the rush, high, low, and craving which were to be rated on an integer scale of 0 (none) to 3 (maximum). The individualized conventions for description of subjective responses were then tested, during the unblinded pre-infusion with 0.2 mg/kg cocaine, on a portable computer with a program simulating that used in the MRI.
Of the four behavioral measures, only craving was defined operationally in terms of the action the individual wanted to engage in (to get more cocaine). The other three behavioral measures, rush, high, and low, were defined in terms of subjective feelings which were not necessarily associated with a behavioral output, or associated with the planning and implementation of physical activity. Thus, by definition, only craving was defined as a motivational state. In general, rush experiences involved physical sensations of elevated heart rate and sweating, along with internal feelings variously characterized as ‘speeding’ sensations and sensations of ‘being out-of-control’. In contrast, the high experience was generally associated with feelings of self-confidence, well-being, and sociability. The low experience encompassed all negative subjective feelings potentially associated with cocaine use such as anxiety, paranoia, dysphoria, or anhedonia; the majority of subjects in this study discussed the low in terms of dysphoric affect distinct from a diminishment in the high experience.
Behavioral Data: The integer output for each behavioral rating was segregated by category of rush, high, low, and craving. For the group data in FIG. 2, the 18 measures for each behavioral category obtained during the 18 minute BOLD infusion scan were averaged for the 9 subjects with both interpretable behavioral data and fMRI data. This averaged data was then utilized in the correlational analysis of the cocaine fMRI data.

[1] = 0.6 mg/kg IV blinded, scale 0-3
[2] = 0.6 mg/kg IV, post-infusion, 0.6 mg/kg

COC(=O)[C@H]1[C@@H](OC(=O)c2ccccc2)C[C@@H]2CC[C@H]1N2C [cocaine] gave a craving rating (0.2 mg/kg IV, unblinded) of 1.0±1.3, a high rating (0.2 mg/kg IV, unblinded) of 1.7±1.2 and a low rating (0.2 mg/kg IV, unblinded) of 0.8±0.8. For the same compound, the rush rating (0.2 mg/kg IV, unblinded) was 1.2±1.1, the peak craving rating [1] was 1.3±0.9 and the peak high rating [1] was 2.1±0.8. For the same compound, the peak low rating [1] was 0.9±0.8, the “peak rush rating (mean±SD)” value [1] was 2.2±1.1 and the “time of peak high” value (0.6 mg/kg IV, post-infusion) was 3 min. For the same compound, the “time of peak rush” value (0.6 mg/kg IV, post-infusion) was 3 min, the “time of peak craving” value [2] was 12 min and 11 to 12 min and the “time of peak low” value [2] was 11 min and 11 to 12 min. For the same compound, the craving rating (retest infusion, four subjects) was 1.0±1.2, the high rating (retest infusion, four subjects) was 2.3±0.5 and the low rating (retest infusion, four subjects) was 1.0±0.8. The rush rating (retest infusion, four subjects) was 1.8±1.0.
